# In patent US6777176B1, “Target system” (priority 1997, dated 2004):
# Residues, ends and D or L forms follow the SMILES beside them. No end group written: not given here.
# What was measured:
# enzyme I [1] = target: T1, enzyme I (Escherichia coli, UniProt P08839); assay: Pyruvate formation coupled to lactate dehydrogenase (uncoupling / phosphatase activity); assay type: biochemical, E. coli; conditions: for uncoupling P1/peptide (x IC50/h): μM NADH consumed per μM peptide per one hour multiplied by the IC50 (μM); for uncoupling P1/peptide/h: Table 2
# T1 construct: made in house
# Description: The assay can be performed in microtiter plates and quantitated with a microplate photoreader. Another assay to monitor phosphatase activity of soluble compounds is based on the detection of pyruvate which is continuously produced from phosphoenolpyruvate whenever enzyme I is dephosphorylated. The enzyme I-specific phosphatase activity of soluble compounds can be detected from the pyruvate burst. The rate of pyruvate formation is monitored with lactate dehydrogenase and NADH. The assay can be performed in microtiter plates and quantitated with a microplate photoreader.
# PTS Enzyme I = target: T2, PTS Enzyme I (Escherichia coli, UniProt P08839); assay: Inhibition of sugar uptake assay (enzyme I dependent GlcNAc phosphorylation), low molecular weight compounds; assay type: biochemical, E. coli; conditions: compounds at 25-200 μM, DMSO control taken as 100%; read-out: Activity against PTS Enzyme I IC50
# T2 construct: made in house
# Description: To find inhibitors of Enzyme I of the PTS by high throughput screening, an in vitro assay based on spectrophotometric read out at 340 nm has been set up. The assay comprises of three major components: purified enzyme I in catalytic amounts, PEP as the phosphoryl donor substrate, and purified HPr as the phosphoryl acceptor substrate. The assay couples the formation of pyruvate from PEP with its reduction to lactate, catalyzed by lactate dehydrogenase. The disappearance of NADH, cofactor required by lactate dehydrogenase, is monitored colorimetrically at 340 nm. The assay is done in a U-shaped microtiter plate format, and quantitation is done using microplate absorbance reader.
# Reaction mixtures, each 100 μl, are used in the assay. Each reaction mixture contains 0.8 mM PEP, 0.2 mM NADH, 3 μg lactate dehydrogenase (Boehringer Mannheim), 50 mM KPi pH=7.5, 2.5 mM dithiothreitol, 2.5 mM NaF, 5 mM MgCl2, and between 25 and 200 μM of one of the organic compounds to be tested. […]
# Once the inhibitors of Enzyme I of the PTS are identified by high throughput screening, inhibition of enzyme I dependent sugar phosphorylation activity is measured with the inhibition of sugar uptake assay detailed below.
# This assay measures the inhibition of enzyme I dependent sugar phosphorylation activity. […] Activity is expressed as nmoles of sugar-P formed after 30 min. […]
# E. coli K-12 UT580 = assay: Growth inhibition assay, filter discs on LB soft agar; assay type: cell-based; conditions: area of clear zone around filter disc, over night at 37° C.
# Experimental: FIG. 4. Growth inhibition of E. coli K12 UT580.
# Growth inhibition assay. […] To each filter was added 10 μl of one of the different peptide stock solutions (20 μM to 80 μM). […] Compare FIG. 4 and Table I on the following two pages.
# enzyme I [2] = target: T1, enzyme I; assay: biochemical; assay type: biochemical, E. coli; conditions: for IC50: in vitro PTS activity, purified HPr, enzyme I and IIGlcNAc, 30 min at 37° C., Table I, read-out: inhibition IC50
# Description: (d) Inhibition of in vitro PTS activity. The inhibitory activity of soluble compounds can be measured quantitatively in the sugar phospbotransferase assay in the presence of the purified PTS proteins and with [^14C]GlcNAc ([^14C]N-acetyl-glucosamine) or [^14C]Glc ([[…] as terminal phosphate acceptor (Erni et al., 1982 J. Biol. Chem. 257:13726-13730).
# Inhibition of phosphotransferase activity by soluble peptides. This assay measures the inhibition of enzyme I dependent sugar phosphorylation activity. […] The purified N-acetylglucosamine transporter (II^GlcNAc) of E. coli (Mukhija and Erni, 1996) was used as the sugar specific component. The reaction mixture contained per 100 μl, 100 μg phosphatidyl glycerol from egg yolk (Sigma), 50 mM KPi, pH 7.5, 2.5 mM dithiothreitol, 2.5 mM NaF, 5 MM MgCl2, 1 mM phosphoenolpyruvate (potassium salt, Sigma), 0.5 mM [U-^14C]GlcNAc (New England Nuclear; 56.3 mCi/mmol, diluted to 1000 cpm/nmol), and 3 μM each of purified HPr and enzyme I (Mao et al., 1995 J. Biol. Chem. 270:5258-5265). The reaction was started by addition of 0.1 μg of II^GlcNAc. After incubation for 30 min at 37° C., the reaction was stopped by adding 1 ml ice-cold water. GlcNAc-6-Phosphate was separated from free Glc-NAc by anion-exchange chromatography on AG-1-X2 (50-100 mesh, Biorad). Activity is expressed as nmoles of sugar-P formed after 30 min. The HPr concentration was adjustedsuch that it was rate limiting in the overall phosphotransferase reaction. The inhibitory peptides were added to concentrations of 25 μm to 10 mM. Phosphorylation of GlcNAc in the absences of peptide was taken as 100%.
# [3] = Growth inhibition MIC (Table 2); assay type: cell-based
Compound,uncoupling P1/peptide (x IC50/h) (enzyme I [1]),uncoupling P1/peptide/h (enzyme I [1]),further results
KMSRHRKPGA [compound 3],22.2 x IC50/h,–,–
"O=C1NN=C(c2ccccc2)CC1Cc1ccc(O)cc1 (centres unmarked) [4-(4-Hydroxy-benzyl)-6-phenyl-4,5-dihydro-2H-pyridazin-3-one]",–,–,IC50 (PTS Enzyme I): 20 µM
RIHFIPRRGR [compound 7],39.6 x IC50/h,–,growth inhibition (area/μM) (E. coli K-12 UT580): 0.77 area/μM
"RHYLLF [compound 13, RHYLLF]",–,–,growth inhibition (area/μM) (E. coli K-12 UT580): 0.83 area/μM
KISRHGRPTG [compound 6],479.3 x IC50/h,–,–
DGARLHYLF [compound 9],132.3 x IC50/h,–,–
SGRKSTRVHHWLLVL [compound 2],6.6 x IC50/h,–,growth inhibition (area/μM) (E. coli K-12 UT580): 3.05 area/μM
KKFHIRKR [compound 28],–,0.31 P1/peptide/h,–
"KKFDLRK [compound 22, KKFDLRK]",–,0.05 P1/peptide/h,–
"KKFHLRK [compound 20, KKFHLRK]",–,0.49 P1/peptide/h,–
"RHITLF [compound 15, RHITLF]",–,–,growth inhibition (area/μM) (E. coli K-12 UT580): 0.27 area/μM
CSCC[C@H](NC(C)=O)C(=O)N[C@@H](CCCNC(=N)N)C(=O)N[C@@H](CC(C)C)C(=O)N[C@@H](CC(C)C)C(=O)N[C@@H](CCCCN)C(=O)N[C@H](C(=O)N[C@@H](CC(C)C)C(=O)N[C@@H](CS)C(=O)N[C@@H](Cc1ccccc1)C(=O)N[C@H](C(=O)NCC(=O)N[C@@H](CC(C)C)C(=O)N[C@@H](CS)C(=O)NCC(=O)O)C(C)C)[C@@H](C)O [compound 19] (Ac-MRLLKTLCFVGLCG-OH),–,–,IC50 (enzyme I [2]): > 10000 µM
KKWHLRKR [compound 24],–,0.3 P1/peptide/h,–
KKWHKRKK [compound 27],–,0.215 P1/peptide/h,–
KISRHGKRGK [compound 5],1.9 x IC50/h,–,–
"Cc1cc(-c2onc(C)c2C(=O)Sc2ccc(Cl)cc2)no1 [5,3′-Dimethyl-[3,5′]-biisoxazolyl-4′-carbothioic acid-S-(4-chloro-phenyl) ester]",–,–,IC50 (PTS Enzyme I): 50 µM
"MSRHRN [compound 16, MSRHRN]",143.8 x IC50/h,–,–
Ac-DGARLHYLF [compound 10],15.2 x IC50/h,–,–
"RLHYLF [compound 8, RLHYLF]",64.2 x IC50/h,–,growth inhibition (area/μM) (E. coli K-12 UT580): 0.90 area/μM
"HPr protein: small (9 kD) soluble phosphorylcarrier protein HPr, natural phosphoryl acceptor of enzyme I",–,2.70 P1/peptide/h,–
KKWHRRKK [compound 26],–,0.29 P1/peptide/h,–
"RHWSIF [compound 11, RHWSIF]",–,–,growth inhibition (area/μM) (E. coli K-12 UT580): 1.30 area/μM
GLRGKTRVHYLVLG [peptide 1],3.2 x IC50/h,–,growth inhibition (area/μM) (E. coli K-12 UT580): 3.65 area/μM
KGWHKRKK [compound 25],–,0.23 P1/peptide/h,–
KKFALRK [compound 21],–,–,"inhibition IC50 (enzyme I [2]; peptides from support-based combinatorial libraries, Table 2): none"
CSCC[C@H](N)C(=O)N[C@@H](CCCNC(=N)N)C(=O)N[C@@H](CC(C)C)C(=O)N[C@@H](CC(C)C)C(=O)N[C@@H](CCCCN)C(=O)N[C@H](C(=O)N[C@@H](CC(C)C)C(=O)N[C@@H](CS)C(=O)N[C@@H](Cc1ccccc1)C(=O)NCC(=O)N[C@@H](CC(C)C)C(=O)N[C@@H](CS)C(=O)NCC(=O)O)[C@@H](C)O [compound 18] (H-MRLLKTLCFGLCG-OH; N-terminus and C-terminus assumed),–,–,IC50 (enzyme I [2]): 3500 µM
XXKKWHLRKRXX [compound 23],–,0.43 P1/peptide/h,growth inhibition MIC [3]: 44.7 µM
